Structures can show the parent of a compound that is named as a salt.
Molecular target: T1, recombinant human tryptase, beta, from lung (Homo sapiens, UniProt P20231)
T1 construct: purchased Promega or Enzo Life Sciences G5631 or BML-SE418
Test: Inhibition of tryptase activity by coferons (Boc-Gln-Ala-Arg-AMC fluorescence)
Assay type: biochemical
Details: coferon monomer alone; 1 nM tryptase
Description: Stock solutions of recombinant human tryptase, beta, from lung (Promega: catalog number G5631, or Enzo Life Sciences: catalog number BML-SE418) were made at 30 μM, in solution with 50 μM heparin sulfate and 500 mM NaCl. Coferon tryptase inhibitor stock solutions were made at 50 mM in DMSO. Drug plates were made at 5× the final concentration in assay buffer (50 mM HEPES, 150 mM NaCl, 100 μM EDTA, pH 7.4, 0.02% Tween-20). A final concentration of 1 nM tryptase was used. When required, drugs were diluted in assay buffer immediately before use in 10-fold serial dilutions. […] The Softmax Pro (Molecular Devices) and Graphpad prism software were used to determine Vmax, and concentration-response curve IC50s, respectively.

T1 sequence (P20231 31-275): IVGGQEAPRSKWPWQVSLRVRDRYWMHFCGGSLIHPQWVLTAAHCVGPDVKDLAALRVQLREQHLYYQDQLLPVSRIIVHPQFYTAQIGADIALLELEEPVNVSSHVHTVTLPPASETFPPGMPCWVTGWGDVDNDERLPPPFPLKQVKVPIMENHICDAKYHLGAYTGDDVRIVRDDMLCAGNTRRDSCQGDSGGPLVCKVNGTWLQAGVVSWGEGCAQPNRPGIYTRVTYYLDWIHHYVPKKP

Row | SMILES | IC50
1 | NCc1cccc(C2CCN(C(=O)Cc3ccc(B(O)O)cc3)CC2)c1 [Example 37, (4-(2-(4-(3-(aminomethyl)phenyl)piperidin-1-yl)-2-oxoethyl)phenyl)boronic acid] | 1.05 µM
2 | NCc1cccc(C2CCN(C(=O)c3cccc4ccc(B(O)O)cc34)CC2)c1 [Example 35, (8-(4-(3-(aminomethyl)phenyl)piperidine-1-carbonyl)naphthalen-2-yl)boronic acid] | 15 µM
3 | NCc1cccc(C2CCN(C(=O)c3cccc4cc(O)c(O)cc34)CC2)c1 [Example 40, (4-(3-(aminomethyl)phenyl)piperidin-1-yl)(6,7-dihydroxynaphthalen-1-yl)methanone] | 1.2 µM

The remaining molecules from weak to strong by IC50, led by results:

Row | IC50 | SMILES
4 | 8.15 µM | NCc1cccc(C2CCN(C(=O)Cc3cccc(B(O)O)c3)CC2)c1 [Example 36, (3-(2-(4-(3-(aminomethyl)phenyl)piperidin-1-yl)-2-oxoethyl)phenyl)boronic acid]
5 | 7.5 µM | NCc1cccc(C2CCN(C(=O)c3cccc(OCC(=O)N4C[C@@H](O)[C@@H](O)C4)c3)CC2)c1 [Example 50, 2-(3-(4-(3-(aminomethyl)phenyl)piperidine-1-carbonyl)phenoxy)-1-((3S,4R)-3,4-dihydroxypyrrolidin-1-yl)ethanone]
6 | 4.3 µM | NCc1cccc(C2CCN(C(=O)/C=C/c3ccc(O)c(O)c3)CC2)c1 [Example 39, (E)-1-(4-(3-(aminomethyl)phenyl)piperidin-1-yl)-3-(3,4-dihydroxyphenyl)prop-2-en-1-one hydrochloride]
7 | 0.48 µM | NCc1cccc(C2CCN(C(=O)c3cccc4cc(B(O)O)ccc34)CC2)c1 [Example 34, (5-(4-(3-(amino methyl)phenyl)piperidine-1-carbonyl)napthalen-2-yl)boronic acid]
